# Test results as given in patent US12303891B2, “Emulating vascular cellular physiologies” (CALIFORNIA NORTHSTATE COLLEGE OF PHARMACY, LLC, priority 2021, dated 2025).
# “Also recorded” adds a separate entry of the source.
# What was measured:
# [1] = tested on: PAH patients; experiment: Responsiveness of female and male PAH patients to anti-PAH drugs; type: in vivo, human; conditions: for responsiveness of female PAH patients: 'we have found'
# [2] = tested on: PAH-ECs/SMCs/ADCs of male and female patients; experiment: PAH chip, sex-specific therapeutic response to bosentan; type: cell-based, human
# Description: As reported in our recent publication, we first characterized the cells for various markers and seeded control and PAH cells on the respective channels of the chips at a density of 2×10^6 cells/mL of adventitial cells (ADCs) or SMCs and 5˜10×10^6 cells/mL of ECs. SMCs were seeded in rat tail type I collagen solution (Corning Inc., NY). We fed the cells with the media via the two outermost channels. In experiment when chips were seeded with three different cell types, we first instilled collagen (2 mg/mL) alone or SMC mixed with collagen into the medial channel and allowed 20 minutes for collagen to form gel and then seeded ECs and ADCs 20 minutes apart. The cell-laden chips thus prepared were placed in a humidified chamber and let them grow in a CO2 incubator for 5-8 days. Each day, the medium was removed and replaced with 150 μL fresh media.
# (§1) Into chips prepared by seeding PAH-ECs/SMCs/ADCs of male and female patients, we infused 50 µM bosentan starting from day 4 of cell seeding and continued the infusion for an additional 3 days. To determine whether the drug had any preventive effects, we treated the cell-laden chips with 50 µM bosentan on day 1 of seeding and let the cells grow for 6 more days with no treatment. For studying the influence of growth hormones and anti-PAH drug on cellular functions and remodeling, we seeded male and female PAH-ECs, QD705-labeled or unlabeled PAH-SMCs and PAH-ADCs. We assessed the deposition of human ColT1, expression of aromatase (an enzyme that synthesizes estrogen) and CYP1B1 (an estrogen-metabolizing enzyme) and then measured arterial remodeling and muscularization.
# For assessing the effect of the drug pulmonary arterial thickening, we assumed that ECs and SMCs grow in their respective channels, the intimal and medial layers of the chip, not outside their assigned layers. If ECs or SMCs grow outside their original seeding channels, we considered out-of-designated channel growth as intimal or medial layer thickening, respectively. We also considered the migration of SMCs from the medial to intimal as muscularization and that the number of SMCs that grow in the intimal layers is the degree of muscularization. These assumptions were based on PAH pathology whereby non-muscularized distal arteries/arterioles become muscularized and show SM-like cells from preexisting SMCs. We used phase contrast microscopy, immunostaining, and quantum dot labeling to draw line between the growth zones of different cells and for counting and identifying cells.
# For demarcating boundaries of different cell growth areas, we first imaged the chips using a phase-contrast microscope and then stained the cells for imaging using a confocal microscope. For calculating the extent of intimal and medial thickening, we calculated the average of the lengths of five to seven diametrically uneven points of the same layer. To determine the degree of muscularization, we grew QD-labeled N-SMC/PAH-SMCs on the chip and stained the chips for FSP-1 and CD31 antibodies and counted the number of FSP-1+CD31− or QD-labeled SMCs in all three layers of the chip.
# [3] = tested on: PAH patients; conditions: female vs male PAH patients (p=0.3); cited from earlier work
# [4] = tested on: CMs and PAH-ECs; experiment: PAH-RVH chip prepared with CMs and PAH-ECs, efficacy of anti-PAH drugs; type: cell-based, human; conditions: chips prepared with CMs and PAH-ECs
# Text: The modified chip device can be used, for example, for growing both cardiomyocytes (CMs) in the study of cardiovascular disease, and pulmonary arterial endothelial cells (ECs) in the study of pulmonary vascular diseases. The pulmonary arterial ECs, for example, can be collected from the pulmonary arteries of healthy donors (N-ECs) and that of PAH patients (PAH-ECs). We have seen that PAH is an example of a disease that can benefit from improved treatments developed with the systems and methods taught herein. Through the growing of CMs and either N-ECs or PAH-ECs in respective compartments or channels, for example, we can measure the influence PAH-ECs on CMs by measuring various soluble cellular markers, assessing the contractility of CMs, evaluating the expression of genes by CMs, and study the influence of anti-PAH PAH drugs on the release of hypertrophy inducing agents and hypertrophic markers and CM contractility.
# We developed a drug therapy using the systems and methods. We used two anti-PAH drugs, sildenafil and bosentan, on chips prepared with CMs and PAH-ECs, the drug reduced the extent of CM hypertrophy, improved the contractility, and reduced both hypertrophy-inducing agents and hypertrophic markers. From our study, one of skill will understand that the systems and methods can identify the interactions between PAH-afflicted ECs and CMs and assess the efficacy of anti-PAH drugs in ameliorating pulmonary arterial hypertension right ventricular hypertrophy (PAH-RVH).
# [5] = tested on: PACs of female patients and male patients; experiment: Chips with PACs of female and male PAH patients treated with estrogen and growth factor; type: cell-based, human
# Description: as §1
# For assessing the effect of the drug pulmonary arterial thickening, we assumed that ECs and SMCs grow in their respective channels, the intimal and medial layers of the chip, not outside their assigned layers. If ECs or SMCs grow outside their original seeding channels, we considered out-of-designated channel growth as intimal or medial layer thickening, respectively. We also considered the migration of SMCs from the medial to intimal as muscularization and that the number of SMCs that grow in the intimal layers is the degree of muscularization. […]
# [6] = bosentan-treated female vs male chips
# [7] = early treatment, female chips compared with male counterparts
# [8] = female chips, 50 µM bosentan infused from day 4 for 3 days
# [9] = preventive: treated on day one after seeding, then 6 days without treatment, female vs male chips
compound,measurement,setting,value
CCCCC[C@H](O)CC[C@@H]1[C@H]2Cc3cccc(OCC(=O)O)c3C[C@H]2C[C@H]1O [treprostinil],responsiveness of female PAH patients,[1],more responsive
CCCCC[C@H](O)/C=C/[C@@H]1[C@H]2C/C(=C/CCCC(=O)O)O[C@H]2C[C@H]1O [epoprostenol],responsiveness of female PAH patients,[1],more responsive
CC(C)N(CCCCOCC(=O)NS(C)(=O)=O)c1cnc(-c2ccccc2)c(-c2ccccc2)n1 [selexipag],responsiveness of female PAH patients,[1],more responsive
COc1ccccc1Oc1c(NS(=O)(=O)c2ccc(C(C)(C)C)cc2)nc(-c2ncccn2)nc1OCCO [bosentan],"ColT1a deposition, compartment-specific analysis",[2]; [6],lower in bosentan-treated female chips than in the male chips
same,"laminin deposition, compartment-specific analysis",[2]; [6],lower in bosentan-treated female chips than in the male chips
same,responsiveness of female chips compared with male chips,"[2]; chips with cells from female vs male PAH patients, 50 µM bosentan",more responsive
same,intimal deposition of ColT1a,[2]; [7],decreases
same,intimal deposition of laminin,[2]; [7],decreases
same,CYP1B1 expression in the medial layer,[2]; [8],lowered
same,migration of PAH-SMCs toward the luminal and intimal layers,[2]; [8],slowed
same,thickening of the medial layer,[2]; [8],reduced
same,level of muscularization,"[2]; female vs male chips, counting QD705+ PAH-SMCs in intimal layers",lower level of muscularization
same,expression of CYP1B1,[2]; [9],declined more in the medial layer of the female chips than in the male chips
same,presence of PAH-SMCs in the endothelial layer,[2]; [9],lower in the female chips than in the male chips
same,responsiveness of female PAH patients,[1],more responsive
same,"responsiveness of female PAH patients compared with male patients, clinical data",[3],more responsive; also recorded: responsive
same,contractility of CMs,[4],improved
same,extent of CM hypertrophy,[4],reduced
same,hypertrophic markers,[4],reduced
same,hypertrophy-inducing agents,[4],reduced
CCCc1nn(C)c2c(=O)[nH]c(-c3cc(S(=O)(=O)N4CCN(C)CC4)ccc3OCC)nc12 [sildenafil],responsiveness of male PAH patients,"[1]; male PAH patients, 'we have also found'",more responsive
same,contractility of CMs,[4],improved
same,extent of CM hypertrophy,[4],reduced
same,hypertrophic markers,[4],reduced
same,hypertrophy-inducing agents,[4],reduced
CCCNS(=O)(=O)Nc1ncnc(OCCOc2ncc(Br)cn2)c1-c1ccc(Br)cc1 [macitentan],responsiveness of female PAH patients,[1],more responsive
Estrogen,responsiveness of female chips compared with male chips,[5]; chips with PACs from female vs male PAH patients,more responsive
same,arterial remodeling,[5]; chips with PACs of female patients vs male patients,more extensive arterial remodeling
